Measured values published in patent US20260022380A1, “GENETIC MODULATORS OF KRAS PROTEIN EXPRESSION AND THEIR USES” (Northwestern University, priority 2024, published 2026).

Experiments:
[1] = tested on: G12V KRAS in SW480 cells; test: KRAS protein expression after ELOVL6i treatment at different concentrations (immunoblot); type: cell-based, human; conditions: FIG. 2G
Protocol: Whole-cell extracts were prepared using RIPA buffer (Sigma, #R0278) supplemented with protease and phosphatase inhibitor cocktail (Thermo Fisher Scientific, #78442) on ice for 20 minutes. Subsequently, the lysates were centrifuged at 10,000 g for 20 minutes, and the protein concentration was determined using the BCA assay (Thermo Fisher Scientific, #A55864). The proteins were separated on 4-15% precast protein gels (Bio-Rad, #4568084) in 1×-Tris-Glycine-SDS buffer (Bio-Rad, #1610772) at a constant voltage of 100V and transferred onto nitrocellulose membrane (Bio-Rad, #1620115) using 1× Tris-Glycine Buffer (Bio-Rad, 1610734) at 100V for 1 hour. Following transfer, membrane was blocked in 5% skim milk for 1 hour, then incubated at 4° C. with primary antibodies. Detection was performed using horseradish peroxidase (HRP)-conjugated secondary antibodies. Blots were visualized with chemiluminescent substrate (Thermo Fisher Scientific, #34580) using Azure imaging system. Immunoblots were quantified using ImageJ.

[2] = tested on: mCherry-G12V KRAS expressing HT29 cells; test: mCherry-tagged G12V KRAS protein level after ELOVL6i treatment; type: cell-based, human; conditions: FIGS. 11A and 11B
Protocol: To label intracellular markers, live cells were fixed with 4% paraformaldehyde (Fisher Scientific, #AA47377-9M) for 20 minutes, washed with PBS, permeabilized with 0.2% Triton X-100 (Sigma, X100-100ML) for 10 minutes, blocked with PBS with 2% BSA (flow buffer) for 30 minutes then stained with the antibodies prepared in flow buffer. Cells were incubated with primary antibodies for 1-hour at room temperature. Primary antibodies used were: anti-KRAS (Proteintech, #12063-1-AP), anti-phospho-ERK (Thr202/Tyr204) (Cell Signaling Technology, #4370S), and anti-ERK (Cell Signaling Technology, #4695S). After wash with flow buffer, cells were incubated with secondary antibodies for 30 minutes. […] Stained samples and the isotype control were analyzed immediately by flow cytometers. Data were analyzed using the FlowJo software. MFI was defined as median fluorescence across the cell population.
HT29 and SW480 cells were transduced with mCherry-WT-KRAS (Addgene, #153335) or mCherry-G12V-KRAS (Addgene, #153336) plasmid for stable mCherry-KRAS expression. […] Images were analyzed by Fiji Image J. The mean fluorescence intensity of mCherry-KRAS was normalized to the time zero measurement of each FOV to generate relative mCherry-KRAS expression across the experiment's timespan. […]

[3] = tested on: mCherry-G12V KRAS; test: Live-cell imaging of mCherry-KRAS and plasma membrane co-localization; type: cell-based, human; conditions: 40 μM, FIGS. 2H-2K
Protocol: HT29 and SW480 cells were transduced with mCherry-WT-KRAS (Addgene, #153335) or mCherry-G12V-KRAS (Addgene, #153336) plasmid for stable mCherry-KRAS expression. Cells were seeded onto 35 mm glass bottom dish (Fisher Scientific, #NC0794151). ELOVL6 inhibitor was added at 40 μM prior to imaging. Cells were stained with CellBrite™ Steady 488 membrane dye (Biotium, #30106 T) for 30 minutes. Live cells were imaged using Nikon W1 dual cam spinning disk confocal with TIRF and a 100× objective. Five random fields of view (FOV) were selected, and an image/FOV was taken every 15 minutes for a duration of 20 hours. Images were analyzed by Fiji Image J. The mean fluorescence intensity of mCherry-KRAS was normalized to the time zero measurement of each FOV to generate relative mCherry-KRAS expression across the experiment's timespan. The Pearson's coefficient plugin JACop from ImageJ was used for quantification co-localization between mCherry-KRAS and cell membrane dye.

[4] = tested on: GTP-bound KRAS in G12V KRAS expressing HEK293 cells; test: RAS activation assay (active-KRAS pull-down) in HEK293 cells; type: cell-based, human; conditions: 40 μM for 3 days, FIG. 3D
Protocol: (§1) Cells were treated with 40 μM of ELOVL6 inhibitor ELOVL6-IN-2 (MCE, HY-12146) for 3days and collected for protein extraction. RAS activity was assessed utilizing the active Ras pull-down and detection kit (Thermo Fisher Scientific, #16117). In brief, GST-RAF1 RBD and glutathione agarose resin were combined with whole-cell lysates and incubated on a rotator for 1 hour at 4° C. This was followed by three washes and elution with 2× SDS-PAGE loading buffer. The eluted samples were then subjected to western blotting to detect GTP-RAS.

[5] = tested on: GTP-bound KRAS in cancer cell lines harboring G12V or G12D KRAS; test: RAS activation assay (active-KRAS pull-down) in mutant KRAS cancer cell lines; type: cell-based, human; conditions: multiple cancer cell lines harboring G12V or G12D KRAS, 40 μM for 3 days, FIGS. 3E-3G
Protocol: as §1

[6] = tested on: SW403 xenograft; test: SW403 G12V KRAS mutant xenograft study; type: in vivo
Protocol: To establish cell-line-derived xenograft models, 5 million cells (SW403 and NCI-H441) suspended in PBS were subcutaneously injected to the right flanks of 8-week-old female athymic nude (nu/nu) mice purchased from the Jackson Laboratory. Once tumor reached approximately 50 mm3 volume, mice were randomized into groups (n=10) and treated with vehicle control (corn oil) or ELOVL6 inhibitor (dissolved in corn oil) dosed at 300 mg/kg. Treatment was administered twice daily by oral gavage. Tumor growth was measured 2-3 times per week using a caliper. Tumors were collected at the indicated timepoint and at the endpoint for analysis. For KRAS downstream signaling analysis, tumors were dissociated into single cells for flow cytometry analysis and protein was extract for western blotting.
Tumor specimens were fixed in 10% formalin for at least 24 hours. Then washed with PBS and stored in 70% ethanol until paraffin embedding. Slides were stained using Dako Autostainer Plus. The following antibodies were used for staining: KRAS (Proteintech, #12063-1-AP), Ki-67 (Abcam, Ab15580), phospho-ERK (Cell Signaling Technology, #4370S), and ERK (Cell Signaling Technology, #4695s). Slides were then incubated with HRP labelled polymer anti-rabbit antibody (Agilent, K4003). All slides were […] through xylene and alcohol, them mounted, and cover slipped. Slides were scanned at 20× using a Nano Zoomer 2.0 HT (Hamamatsu Photonics).

[7] = tested on: human cell lines harboring KRAS mutations (colorectal, lung, pancreatic cancers); test: Cell viability assay (CellTiter-Glo, 7-day ELOVL6i treatment) across a cell line panel; type: cell-based
Protocol: (§2) The cells were seeded in triplicates in 96-well plates at a density of 5,000-10,000 cells per well and treated with the indicated concentrations of ELOVL6 inhibitor. Assay plates were subjected to daily media exchange with fresh ELOVL6 inhibitor. Following treatment, cell viability was assessed after a period of 1-week treatment using the CellTiter-Glo Luminescent Cell Viability Assay (Promega, #G7571) with luminescence readings taken on a Cytation™ 3 cell imaging multi-mode reader (Fisher Scientific). The background value was indicated by cell medium without cells and was subtracted from the raw data. The fold change in cell viability was determined relative to control cells that received no treatment.

[8] = tested on: cellular lipid composition (ELOVL6 fatty acid elongation); test: Lipidomic analysis (targeted fatty acids and shotgun lipidomics) of ELOVL6i treated cells; type: cell-based; conditions: 40 μM for 1-week
Protocol: Cells were treated with ELOVL6 inhibitor at 40 μM for 1-week. Cell pellets were stored at −80° C. until sent for lipidomic analysis. Mass spectrometry-based shotgun untargeted lipid analysis and targeted fatty acids analysis were conducted by Lipotype (Dresden, Germany). Lipids were extracted using chloroform and methanol procedure as previously described (38). Samples were analyzed by automated direct infusion and orbitrap mass spectrometry. LipotypeXplorer was used for identification of lipids in the raw mass spectra (39). Alterations in lipid composition were determined based on mol % of total lipid normalized to untreated control samples.

[9] = tested on: G12V or G12D KRAS cell lines; test: Lipid add-back cell viability experiment; type: cell-based; conditions: 200 μM oleic acid or 20 μM stearic acid supplemented medium, FIGS. 5G and 19
Protocol: as §2
For the lipid-addback experiment, cells were treated with the indicated concentrations of ELOVL6 inhibitor in 200 μM of oleic acid (Sigma, #O1383-1G) or 20 μM of stearic acid (Sigma, #S4751-1G) supplemented medium.

[10] = targeted lipidomic analysis, versus vehicle-treated controls, FIGS. 5A and 16

Cc1[nH]n(-c2ccc(OC(F)(F)F)cc2)c(=O)c1C1(C(F)(F)F)C(=O)N(c2ccccc2)C2=C1C(=O)CC(C)(C)C2 (centres unmarked) [ELOVL6i]
effect on G12V KRAS protein level [1]: concentration-dependent effect
lowering of mCherry-G12V KRAS [2]: dose-dependent effects
mCherry-G12V KRAS co-localization with cell membrane [3]: Significant reductions
mCherry-G12V KRAS fluorescence intensity [3]: Significant reductions
GTP-bound KRAS [4]: significantly reduced
cellular GTP-bound KRAS [5]: consistently reduced
ERK phosphorylation (immunohistochemistry) ([6]; SW403 tumor samples, FIG. 4E): significant decrease
expression of mutant KRAS (immunohistochemistry) ([6]; SW403 tumor samples, FIG. 4E): significant decrease
ki-67 proliferation marker (immunohistochemistry) ([6]; SW403 tumor samples, FIG. 4E): significant decrease
ERK phosphorylation in tumor samples ([6]; SW403 tumors, western blot and flow cytometry after 3-day, 1-week, 3-week treatment, FIGS. 13B-13D): time-dependent reduction
survival ([6]; SW403 xenograft, oral, 300 mg/kg, FIG. 4D): prolonged survival
tumor growth rate ([6]; SW403 xenograft, oral, 300 mg/kg, FIGS. 4B-4D): significant reduction
tolerability ([6]; mice bearing SW403 xenograft, oral, 300 mg/kg, FIG. 13A): well tolerated
sensitivity of mutant KRAS-expressing cells versus WT KRAS expressing cells ([7]; 7-day treatment, FIGS. 4G-4I and 14): more sensitive
cell viability across KRAS variants ([7]; G12V, G12D, G13D, G12C, G12R, Q61X, A146T cell lines, 7-day treatment, FIG. 4F): impacted cell viability across all KRAS variants tested
sensitivity of pancreatic cancer cell lines (antiproliferative effect) ([7]; panel of human KRAS mutant cell lines): especially sensitive
long-chain PUFA ([8]; ELOVL6i treated cells): increases
sphingolipids, including sphingomyelin (SM) and Hexosyl-Ceramide (HexCer) ([8]; shotgun lipidomic analysis, FIG. 5C): significant reduction
levels of PtdSer ([8]; shotgun lipidomic analysis, FIG. 5E): significantly altered
glycerolipid abundance, including diacylglycerol (DAG) and triacylglycerol (TAG) ([8]; shotgun lipidomic analysis, FIGS. 5B and 18A): Notable increases
levels of oleate [8, 10]: significant reduction
levels of stearate [8, 10]: significant reduction
cell viability with exogenous oleic acid or stearic acid supplementation during ELOVL6i treatment [9]: enhanced cell viability
